This is an account of results in patent publication US10730883B2 (AbbVie Inc., priority 2015, dated 2020).

Structures are written as SMILES. “Also recorded” adds a separate entry of the source.

What all share (assay type): physicochemical
Data set [1] in a line: Solubility of solid state forms.
Data set [2] in a line: Physical stability of solid state forms (dehydration, desolvation, conversion). To be noted: general statement on the solid state form. How it is done: The Tartrate Hydrate dehydrated into Amorphous at low relative humidity and high temperature, e.g., <10% RH at 25° C. Shearing and compression potentially cause conversion to the amorphous tartrate, and therefore it is not suitable for compressing into tablet form. Additionally, the filter cake solidified during drying, resulting in the need for additional controls during drying.
In addition, Freebase Hydrate Form C can be grown into different particle sizes.
Freebase Anhydrate Form D can be manufactured only when the water content of the crystallization solvent is low, and will convert to Freebase Hydrate Form C in solutions at high water content. The manufacture of Freebase Anhydrate Form D thus requires strict control of water content. Freebase Anhydrate Form D is slow to crystallize, and difficult to manufacture in higher yield. […] Freebase Hydrate Form C will convert to Freebase Anhydrate Form D in a solution of ethyl acetate with low water content.
The resulting amorphous hydrochloride is hygroscopic. Yields obtained for each of the crystalline hydrochlorides generally have been in the 10% to 15% range.

Data set [3] in a line: Hygroscopicity / moisture sorption isotherm of solid state forms. To be noted: general statement on the solid state form. From the text: FIG. 6A is a moisture sorption isotherm corresponding to the Amorphous Freebase (via dehydration).
FIG. 6C is a moisture sorption isotherm corresponding to the Tartrate Hydrate.
FIG. 6D is a moisture sorption isotherm corresponding to the Freebase Anhydrate Form D.
In one embodiment, the Tartrate Hydrate has a moisture sorption isotherm profile showing a weight gain of about 1% to about 2% when relative humidity is increased from about 10% relative humidity to about 90% relative humidity at a temperature of 25° C.

A short description of data set [4]: Solid state accelerated stability study. As to conditions: for Growth of degradation products: open and closed glass vials. The method, then: Samples (approximately 1 mg to 2 mg) of the solid state form were weighed into glass vials and tested as described below.
Data set [5] is described as follows: Chemical stability of solid state forms in closed vials at controlled temperature and relative humidity. The method, then:
(§1) The Amorphous Freebase, however, is hygroscopic and can comprise as much as 12% by weight water at 25° C./90% relative humidity. Environmental controls potentially are required to ensure appropriate control of potency and water content during storage, dispensing, and handling of the Amorphous Freebase.
(§2) The Tartrate Hydrate, however, potentially will convert to an amorphous tartrate below 10% relative humidity, when heated, or when compressed or under shear.

Data set [6] in a line: Moisture sorption isotherm. To be noted: below 10% relative humidity at 25° C. The method, then: Moisture vapor isotherm data were collected with a DVS Advantage (Surface Measurement Systems Ltd, Alperton, United Kingdom). The sample powder (5 mg to 20 mg) was loaded on a tared pan of the DVS Advantage. The moisture sorption isotherm data were collected from 30-0-90-0-30% relative humidity in 10% relative humidity intervals. For each step, the dm/dt criteria was 0.001% over 5 minutes, a minimum dm/dt time of 30 minutes, and a maximum dm/dt of 120 minutes. Data was collected isothermally at 25° C. with a nitrogen flow rate of 200 cm^3/minute. The post DVS sample was kept at approximately 30% relative humidity before PXRD analysis.

Data set [7] can be described thus: Stability of solid state forms to light and peroxide. How it is done:
as §1, §2

Turning to `CC[C@@H]1CN(C(=O)NCC(F)(F)F)C[C@@H]1c1cnc2cnc3[nH]ccc3n12.O.O.O.O.O=C(O)C(O)C(O)C(=O)O` [Tartrate Hydrate, (3S,4R)-3-ethyl-4-(3H-imidazo[1,2-a]pyrrolo[2,3-e]pyrazin-8-yl)-N-(2,2,2-trifluoroethyl)pyrrolidine-1-carboxamide tartrate tetrahydrate], in data set [1], the BCS class entry is reported as “Class I”. Besides, the Solubility entry in data set [1] (Amorphous Freebase: relative to the corresponding crystalline forms) is on record as “high solubility; also recorded: good solubility”. Moreover, the physical stability result in data set [2] was “lack of physical stability”. In data set [3], the hygroscopicity result was “not hygroscopic”. The “Growth of degradation products” value in data set [4] (25° C./60% relative humidity, up to 24 months) is on record as “no growth of degradation products”; in data set [4] (40° C./75% relative humidity, at least one month), “no growth of degradation products”; in data set [4] (50° C./75% relative humidity, up to six weeks), “no growth of degradation products”. For the same molecule, the chemical stability result is recorded as “acceptable” in data set [4] (solid state accelerated stability study) and “acceptable chemical stability” in data set [5] (general statement on the solid state form). Moreover, the “Change in attributes evaluated (description, crystal form, assay, impurities and water content)” value in data set [4] (storage conditions of the accelerated stability study) is “No material change”. Besides, the “degradation observed in closed vials” value in data set [5] (closed vials, 30° C./65% relative humidity and 40° C./75% relative humidity over 12 weeks, 50° C./75% relative humidity over 6 weeks) is recorded as “no degradation”. Further, in data set [6], the “Dehydration in moisture sorption isotherm analysis” value is “dehydrates to an amorphous tartrate”. For the same molecule, in data set [7], the “stability to light and peroxide” value is recorded as “acceptable stability”.
